“And” between values parts separate entries of the source, which are not always exact repeats. Identical values can stand only once.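 Results reflect a 48-hour exposure of cells in 96-well plates to compound at five concentrations. GI50: concentration for 50% inhibition of growth. TGI marks complete inhibition of growth.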
Key:
Assay in all cases: NCI tumour cell line growth inhibition, 48 h
HCC-2998 colon = test system: HCC-2998 colon
RXF 393 renal = test system: RXF 393 renal
RPMI-8226 leukemia = test system: RPMI-8226 leukemia
SNB-19 CNS = test system: SNB-19 CNS
OVCAR-8 ovarian = test system: OVCAR-8 ovarian
HT29 colon = test system: HT29 colon
EKVX NSCLC = test system: EKVX NSCLC
SK-OV-3 ovarian = test system: SK-OV-3 ovarian
MALME-3M melanoma = test system: MALME-3M melanoma
A549 NSCLC = test system: A549 NSCLC

C=C1C2Oc3ccccc3C1N(c1ccccc1)O2 (stereo not given)
TGI (HCC-2998 colon): > 100 µM | TGI (RXF 393 renal): > 100 µM | TGI (RPMI-8226 leukemia): > 100 µM | TGI (SNB-19 CNS): > 100 µM | TGI (OVCAR-8 ovarian): 33.2 µM | TGI (HT29 colon): 67.5 µM | TGI (EKVX NSCLC): > 100 µM | TGI (SK-OV-3 ovarian): > 100 µM | TGI (MALME-3M melanoma): > 100 µM | TGI (A549 NSCLC): > 100 µM

Cc1ccc(-n2nc(C(C)(C)C)cc2NC(=O)NCc2cc(F)ccc2Oc2ccc3c(cnn3CCO)c2)cc1
GI50 (HCC-2998 colon): > 10 µM and 5.39 µM | TGI (HCC-2998 colon): > 48.8 µM | GI50 (RXF 393 renal): 7.04 µM and 4.64 µM | TGI (RXF 393 renal): > 10 µM and 23.7 µM | GI50 (RPMI-8226 leukemia): 3.28 µM and 2.7 µM | TGI (RPMI-8226 leukemia): > 10 µM and 28.7 µM | GI50 (SNB-19 CNS): > 10 µM and 17.9 µM | TGI (SNB-19 CNS): > 100 µM | GI50 (OVCAR-8 ovarian): > 10 µM and 8.96 µM | TGI (OVCAR-8 ovarian): > 100 µM | GI50 (HT29 colon): 0.718 µM and 2.44 µM | TGI (HT29 colon): > 10 µM and 26.6 µM | GI50 (EKVX NSCLC): > 10 µM | TGI (EKVX NSCLC): > 10 µM | GI50 (SK-OV-3 ovarian): > 10 µM and 9.24 µM | TGI (SK-OV-3 ovarian): > 83.9 µM | GI50 (MALME-3M melanoma): 0.396 µM and 0.305 µM | TGI (MALME-3M melanoma): > 10 µM and 1.73 µM | GI50 (A549 NSCLC): > 10 µM and 11.7 µM | TGI (A549 NSCLC): > 100 µM

CCCCCCCCCCCCCCCCCCOCC(COCCOCC[N+]1(CCCCCC(=O)[O-])CCCC1)Oc1ncccn1 (stereo not given)
TGI (HCC-2998 colon): 17.4 µM | TGI (RXF 393 renal): 10.4 µM | TGI (RPMI-8226 leukemia): 8.96 µM | TGI (SNB-19 CNS): 16.5 µM | TGI (OVCAR-8 ovarian): 15.9 µM | TGI (HT29 colon): 13.7 µM | TGI (EKVX NSCLC): 31.3 µM | TGI (SK-OV-3 ovarian): 6.62 µM | TGI (MALME-3M melanoma): 32.8 µM | TGI (A549 NSCLC): 20 µM

CC(C)(C)NCC(COc1ccc([N+](=O)[O-])cc1)OP(c1ccccc1)c1ccccc1 (stereo not given)
TGI (HCC-2998 colon): > 100 µM | TGI (RXF 393 renal): > 100 µM | TGI (RPMI-8226 leukemia): 35.3 µM | TGI (SNB-19 CNS): > 100 µM | TGI (OVCAR-8 ovarian): > 100 µM | TGI (HT29 colon): > 100 µM | TGI (EKVX NSCLC): > 100 µM | TGI (SK-OV-3 ovarian): > 100 µM | TGI (MALME-3M melanoma): 67 µM | TGI (A549 NSCLC): > 100 µM

CCn1c(-c2nonc2N)nc2ccncc21
GI50 (HCC-2998 colon): > 25 µM | TGI (HCC-2998 colon): > 25 µM | GI50 (RXF 393 renal): > 25 µM | TGI (RXF 393 renal): > 25 µM | GI50 (RPMI-8226 leukemia): > 25 µM | TGI (RPMI-8226 leukemia): > 25 µM | GI50 (SNB-19 CNS): > 25 µM | TGI (SNB-19 CNS): > 25 µM | GI50 (OVCAR-8 ovarian): > 25 µM | TGI (OVCAR-8 ovarian): > 25 µM | GI50 (HT29 colon): > 25 µM | TGI (HT29 colon): > 25 µM | GI50 (EKVX NSCLC): > 25 µM | TGI (EKVX NSCLC): > 25 µM | GI50 (SK-OV-3 ovarian): > 25 µM | TGI (SK-OV-3 ovarian): > 25 µM | GI50 (MALME-3M melanoma): > 25 µM | TGI (MALME-3M melanoma): > 25 µM | GI50 (A549 NSCLC): > 25 µM | TGI (A549 NSCLC): > 25 µM

COc1ccc2[nH]c(-c3ccc(O)cc3)cc(=O)c2c1
TGI (HCC-2998 colon): 3.4 µM | TGI (RXF 393 renal): 5.16 µM | TGI (RPMI-8226 leukemia): 65.2 µM | TGI (SNB-19 CNS): > 100 µM | TGI (OVCAR-8 ovarian): 13.1 µM | TGI (HT29 colon): 8.69 µM | TGI (EKVX NSCLC): > 31.2 µM | TGI (SK-OV-3 ovarian): 7.49 µM | TGI (MALME-3M melanoma): > 29.1 µM | TGI (A549 NSCLC): > 59.4 µM

Nc1ccccc1C(=O)C(Br)C(Br)c1ccc2c(c1)OCO2 (stereo not given)
TGI (HCC-2998 colon): 42.5 µM | TGI (RXF 393 renal): 49.9 µM | TGI (RPMI-8226 leukemia): > 100 µM | TGI (SNB-19 CNS): 89 µM | TGI (OVCAR-8 ovarian): 91.5 µM | TGI (HT29 colon): 34.4 µM | TGI (EKVX NSCLC): 52 µM | TGI (SK-OV-3 ovarian): 84.4 µM | TGI (MALME-3M melanoma): 39 µM | TGI (A549 NSCLC): 57.3 µM

Cc1ccc(NC(=O)/C(Cc2cc(=O)oc3cc(O)ccc23)=N\NC(=O)C[N+](C)(C)C)cc1C
TGI (HCC-2998 colon): > 100 µM | TGI (RXF 393 renal): > 100 µM | TGI (RPMI-8226 leukemia): > 100 µM | TGI (SNB-19 CNS): > 100 µM | TGI (OVCAR-8 ovarian): > 100 µM | TGI (HT29 colon): > 100 µM | TGI (EKVX NSCLC): > 100 µM | TGI (SK-OV-3 ovarian): > 100 µM | TGI (MALME-3M melanoma): > 100 µM | TGI (A549 NSCLC): > 100 µM

O=C1c2cccc3cccc(c23)C(=O)N1O
TGI (HCC-2998 colon): > 100 µM | TGI (RXF 393 renal): 68.5 µM | TGI (RPMI-8226 leukemia): > 100 µM | TGI (SNB-19 CNS): > 100 µM | TGI (OVCAR-8 ovarian): > 100 µM | TGI (HT29 colon): > 100 µM | TGI (EKVX NSCLC): > 100 µM | TGI (SK-OV-3 ovarian): > 100 µM | TGI (MALME-3M melanoma): > 100 µM | TGI (A549 NSCLC): > 100 µM

O=C(/C=C/c1cccc(O)c1)c1cccc(-n2cc(-c3ccc4ccccc4c3)[nH]c2=O)c1
GI50 (HCC-2998 colon): 2.13 µM | TGI (HCC-2998 colon): 5.11 µM | GI50 (RXF 393 renal): 1.41 µM | TGI (RXF 393 renal): 3.07 µM | GI50 (RPMI-8226 leukemia): 1.67 µM | TGI (RPMI-8226 leukemia): 6.91 µM | GI50 (SNB-19 CNS): 1.32 µM | TGI (SNB-19 CNS): 4.13 µM | GI50 (OVCAR-8 ovarian): 2.33 µM | TGI (OVCAR-8 ovarian): > 100 µM | GI50 (HT29 colon): 1.53 µM | TGI (HT29 colon): 2.87 µM | GI50 (EKVX NSCLC): 2.64 µM | TGI (EKVX NSCLC): 13.9 µM | GI50 (SK-OV-3 ovarian): 2.15 µM | TGI (SK-OV-3 ovarian): 6.73 µM | GI50 (MALME-3M melanoma): 2.08 µM | TGI (MALME-3M melanoma): 6.37 µM | GI50 (A549 NSCLC): 3.38 µM | TGI (A549 NSCLC): 12.7 µM

COc1ccc(-c2c(C3=NCCCN3)nnn2-c2ccc([N+](=O)[O-])cc2)cc1
TGI (HCC-2998 colon): > 100 µM | TGI (RXF 393 renal): > 100 µM | TGI (RPMI-8226 leukemia): > 100 µM | TGI (SNB-19 CNS): > 100 µM | TGI (OVCAR-8 ovarian): > 100 µM | TGI (HT29 colon): > 100 µM | TGI (EKVX NSCLC): > 100 µM | TGI (SK-OV-3 ovarian): > 100 µM | TGI (MALME-3M melanoma): > 100 µM | TGI (A549 NSCLC): > 100 µM

CC(C)[O-].CC(C)[O-].CN(CCN(C)Cc1cc(F)cc(F)c1[O-])Cc1cc(F)cc(F)c1[O-].[Ti+4]
GI50 (HCC-2998 colon): 2.22 µM | TGI (HCC-2998 colon): 7.52 µM | GI50 (RXF 393 renal): 0.357 µM | TGI (RXF 393 renal): 1.31 µM | GI50 (RPMI-8226 leukemia): 0.882 µM | TGI (RPMI-8226 leukemia): 4.44 µM | GI50 (SNB-19 CNS): 0.909 µM | TGI (SNB-19 CNS): 8.15 µM | GI50 (OVCAR-8 ovarian): 1.09 µM | TGI (OVCAR-8 ovarian): 6.55 µM | GI50 (HT29 colon): 1.72 µM | TGI (HT29 colon): 3.81 µM | GI50 (EKVX NSCLC): 1.31 µM | TGI (EKVX NSCLC): 10 µM | GI50 (SK-OV-3 ovarian): 0.634 µM | TGI (SK-OV-3 ovarian): 9.09 µM | GI50 (MALME-3M melanoma): 0.379 µM | TGI (MALME-3M melanoma): 1.43 µM | GI50 (A549 NSCLC): 0.892 µM | TGI (A549 NSCLC): 7.95 µM

O=c1[nH]c2cc([N+](=O)[O-])ccc2nc1/C(=N\Nc1ccccc1)C(O)c1ccc2c(c1)OCO2 (stereo not given)
TGI (HCC-2998 colon): > 100 µM | TGI (RXF 393 renal): > 100 µM | TGI (RPMI-8226 leukemia): > 100 µM | TGI (SNB-19 CNS): > 100 µM | TGI (OVCAR-8 ovarian): > 100 µM | TGI (HT29 colon): > 100 µM | TGI (EKVX NSCLC): > 100 µM | TGI (SK-OV-3 ovarian): > 100 µM | TGI (MALME-3M melanoma): > 100 µM | TGI (A549 NSCLC): > 100 µM

From PubChem BioAssay (NCI)
